Laboratory results reported in US7884109B2, “Purine and imidazopyridine derivatives for immunosuppression” (Wyeth LLC, priority 2005, dated 2011).

system: IL-2-induced IFN-γ production; experiment: IL-2-Induced IFN-γ Production in the Mouse; assay type: in vivo; conditions: po, 1 h, 30 mg/kg by gavage one hour before IL-2, serum IFN-γ, female BALB/c mice, read-out: inhibition of IL-2-induced IFN-gamma production
Procedure: Administration of IL-2 leads to an increase in serum IFN-γ in the mouse due to NK secretion of the cytokine (Thornton S, Kuhn K A, Finkelman F D and Hirsch R. NK cells secrete high levels of IFN-γ in response to in vivo administration of IL-2. Eur J Immunol 2001 31:3355-3360). The experiment was carried out essentially according to the protocol in Thornton et al. and the test compounds were administered in order to determine the level of inhibition attained. In summary, female BALB/c mice were fasted for 12-18 hours before a study but had free access to water at all times. Test compounds were administered by gavage one hour before intraperitoneal injection of IL-2 and capture antibody. At termination of the studies, the mice were sacrificed by carbon dioxide inhalation, terminal blood samples were collected by cardiac puncture and serum was generated. Serum was stored frozen until it was assayed for IFN-γ, as described by the kit manufacturer (BD Pharmingen™, San Diego, Calif.).

| Compound | inhibition at 30 mg/kg |
| --- | --- |
| C[C@@H]1CCN(C(=O)CC#N)C[C@@H]1N(C)c1ncnc2[nH]ccc12 [CP690550, reference compound] | 96% |
| O=c1[nH]c2cnc(-n3cnc4ccccc43)nc2n1[C@@H]1CCOc2c(F)cccc21 [Example 114] | > 40% |
| C[C@H](c1cccnc1)n1c(=O)[nH]c2cnc(-n3cnc4ccccc43)nc21 [Example 120] | > 40% |
| O=C1CCC(n2c(=O)[nH]c3cnc(-n4cnc5ccccc54)nc32)c2ccccc21 (stereo not shown) [Example 135] | > 40% |
| O=c1[nH]c2cnc(-n3cnc4ccc(F)cc43)nc2n1C1CCOc2c(F)cccc21 (stereo not shown) [Example 142] | > 40% |
| O=c1[nH]c2cnc(-n3cnc4ccccc43)nc2n1C1CCOc2c(F)cc(F)cc21 (stereo not shown) [Example 151] | > 40% |
| O=c1[nH]c2cnc(-n3cnc4ccccc43)nc2n1C1CCOc2c(F)ccc(F)c21 (stereo not shown) [Example 162] | > 40% |

target: T1, Human Jak3 (Homo sapiens, UniProt P52333); experiment: Jak3 Kinase Assay (HTRF, GST-Jak3 catalytic domain); assay type: biochemical; conditions: (R) and (S) enantiomer pair
T1 construct: A fragment encoding the catalytic domain of Jak3 (508aa to 1124aa) was ligated with GST at 5′ end; made in house; host or cells: Sf9 insect cells (baculovirus, pFastBac 1)
T1 sequence (P52333 508-1124): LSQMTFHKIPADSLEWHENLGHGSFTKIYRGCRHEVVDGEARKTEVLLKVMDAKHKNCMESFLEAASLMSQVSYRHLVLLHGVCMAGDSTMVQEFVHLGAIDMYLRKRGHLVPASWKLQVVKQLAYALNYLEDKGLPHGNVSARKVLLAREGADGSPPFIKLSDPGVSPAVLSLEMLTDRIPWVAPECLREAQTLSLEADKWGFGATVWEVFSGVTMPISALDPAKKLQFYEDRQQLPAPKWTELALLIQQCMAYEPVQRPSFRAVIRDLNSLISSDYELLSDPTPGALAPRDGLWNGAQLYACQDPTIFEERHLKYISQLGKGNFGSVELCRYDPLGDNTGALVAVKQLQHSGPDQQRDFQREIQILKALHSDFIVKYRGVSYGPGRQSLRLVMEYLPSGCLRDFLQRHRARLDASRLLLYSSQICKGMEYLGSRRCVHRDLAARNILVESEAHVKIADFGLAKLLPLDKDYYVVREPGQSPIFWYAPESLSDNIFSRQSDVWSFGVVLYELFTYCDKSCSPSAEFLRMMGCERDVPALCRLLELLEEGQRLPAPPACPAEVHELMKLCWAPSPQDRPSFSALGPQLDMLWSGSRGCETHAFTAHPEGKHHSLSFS
Procedure: Human Jak3 cDNA was amplified by PCR. A fragment encoding the catalytic domain of Jak3 (508aa to 1124aa) was ligated with GST at 5′ end. This fused GST-Jak3 DNA fragment was cloned into the EcoRI site of the donor plasmid pFastBac 1 (Life Technologies #10359-016). The transformation, transposition, and transfection of insect cells (Sf9) were performed according to the manufacture's instructions. The cell lysate containing recombinant GST-Jak3 was used in the kinase assay. Anti-GST antibody (10 μg/ml, Sigma #G1417) was coated onto a 384-well plate at 4° C. overnight. Cell lysate containing GST-Jak3 (1:100 dilution) was added to the anti-GST coated plates, and GST-Jak3 was captured by immobilized anti-GST antibody. Testing compounds and substrate mix (50 mM HEPES, pH 7, 0.5 mM Na3VO4, 25 mM MgCl2, 1 mM DTT, 0.005% BSA, 1 μM ATP, and 4.5 μg/ml biotinyl poly-Glu,Ala,Tyr) were added to the plate to initiate the reaction. After a 60-min incubation, the reaction was stopped by 4 mM EDTA, and phosphorylation of biotinyl poly-Glu,Ala,Tyr was detected using 17 μg/ml Cy5-streptavidin (Amersham, #PA92005) and 2.7 μg/ml Europium-conjugated anti-phosphotyrosine antibody (PerkinElmer #AD0069) using homogeneous time-resolved fluorescence (HTRF) technology.

| IC50 | Compound |
| --- | --- |
| < 1 µM | O=c1[nH]c2cnc(-n3cnc4ccccc43)nc2n1[C@@H]1CCOc2c(F)cc(F)cc21 |
| < 1 µM | O=c1[nH]c2cnc(-n3cnc4ccccc43)nc2n1[C@H]1CCOc2c(F)cc(F)cc21 |

same assay, conditions: (R) versus (S) enantiomer

| Compound | Jak3 potency relative to the other enantiomer |
| --- | --- |
| O=c1[nH]c2cnc(-n3cnc4ccccc43)nc2n1[C@@H]1CCOc2c(F)cc(F)cc21 | more potent than its corresponding (S) enantiomer |
